Test results reported in patent US20080280891A1, “Anti-cancer agents and uses thereof” (Locus Pharmaceuticals, Inc., priority 2006, published 2008).

Legend:
Format in all cases: cell-based
[1] = test system: Jurkat T-cell leukemic cells; experiment: Cell cycle assay (Example 163), G2/M block in Jurkat cells; conditions: Homo sapiens, Jurkat, 24 h, flow cytometry (PI), Table 2
Experimental: (§1) MCF-7 breast cancer cells and Jurkat T-cell leukemic cells were grown (and maintained) in EMEM and RPMI media, respectively, containing 10% fetal calf serum.
Test agents were added a concentration of 0.1 μM. Twenty-fours after test agent addition, cells were analyzed for cell cycle status as described below.
(§2) Cell cycle status was analyzed by flow cytometry. Briefly, cells were collected and washed with FACs buffer (Pharmingen) and resuspended and fixed in 1 mL of 80% ethanol for 1 hr. Cells were washed with FACs buffer and resuspended in propidium iodide(PI)/RNase staining buffer (Pharmingen). PI is a fluorescent dye that labels nucleic acids such as DNA. The fluorescence within a cell (in the presence of PI) is proportional to the amount of DNA within a cell. The cell content of DNA is an indices of status in the cell cycle. […] Cells in the S phase have DNA content that lies between these extremes.
(§3) For testing of cell cycle effects of test agents the percentage of cells within the G1 and G2/M phase were measured.

[2] = test system: MCF-7 breast cancer cells; experiment: Cell cycle assay (Example 163), G2/M block in MCF-7 cells; conditions: Homo sapiens, MCF7, 24 h, flow cytometry (PI), Table 2
Experimental: as §1
Cells were allowed to adhere for 24 hrs. After adherence, cell culture media was changed to that containing 0.5% FCS. Thirty minutes post-media change, test compounds were added at a concentration of 1 μM. Twenty-fours after test agent addition, cells were analyzed for cell cycle status as described below.
as §2, §3

Hela cells = experiment: Cell viability assay (WST-1), Hela cells; conditions: Homo sapiens, HeLa, WST-1, 48-72 hrs, 0.5% fetal calf serum
Experimental: (§4) Jurkat and Hela cells were cultured in RPMI and EMEM media, respectively, containing 0.5% fetal calf serum. Cells were plated in a volume of 100 μL in a 96 well format. Test compounds were included in the culture media at concentrations ranging from 1 nM to 10 μM for a period of 48-72 hrs. Cell viability was determined using the WST-1 calorimetric mitochondrial reduction assay. Briefly, 10 μL of WST-1 reagent was included in the culture well for a period of 1 to 4 hrs. The WST-1 reaction was read on a multiwell spectrophotometer as the difference in the absorbance between 450 nm and 600 nm (baseline). Absorbance was proportional to the number of living cells in the culture well. Concentration response curves and IC50 values were calculated using GraphPAD Prism graphing and curve fitting program.

Jurkat cells = experiment: Cell viability assay (WST-1), Jurkat cells; conditions: Homo sapiens, WST-1, 48-72 hrs, 0.5% fetal calf serum
Experimental: as §4

| SMILES | activation at 0.1 µM [1] [%] | activation at 1 µM [2] [%] | IC50 (Hela cells) [nM] | IC50 (Jurkat cells) [nM] |
| --- | --- | --- | --- | --- |
| Oc1cc(Nc2cccnc2)cc(-c2ccccc2C(F)(F)F)c1 [5-(Pyridin-3-ylamino)-2′-trifluoromethyl-biphenyl-3-ol] | ≥ 50 | < 50 | 1000 to 30000 | > 3000 |
| Oc1cc(Nc2cccnc2)cc(-c2ccc3[nH]ccc3c2)c1 [3-(1H-Indol-5-yl)-5-(pyridin-3-ylamino)-phenol] | ≥ 50 | < 50 | 1000 to 30000 | 1 to 999 |
| Oc1cc(Nc2cnccn2)cc(-c2cccc3[nH]ccc23)c1 [3-(1H-Indol-4-yl)-5-(pyrazin-2-ylamino)-phenol] | ≥ 50 | ≥ 50 | 1 to 999 | 1 to 999 |
| O=C(c1cc(O)cc(-c2cccc3[nH]ccc23)c1)c1cccnc1Cl [(2-Chloro-pyridin-3-yl)-[3-hydroxy-5-(1H-indol-4-yl)-phenyl]-methanone] | < 50 | < 50 | 1000 to 30000 | 1000 to 30000 |
| Oc1cc(Nc2cccnc2)cc(-c2cnc3ccccc3c2)c1 [3-(Pyridin-3-ylamino)-5-quinolin-3-yl-phenol] | < 50 | < 50 | 1000 to 30000 | 1 to 999 |
| Cc1ccc(C(=O)c2cc(O)cc(-c3cccc4[nH]ccc34)c2)cn1 [[3-Hydroxy-5-(1H-indol-4-yl)-phenyl]-(6-methyl-pyridin-3-yl)-methanone] | < 50 |  | 1000 to 30000 | 1 to 999 |
| N#Cc1cnc(Nc2cc(O)cc(-c3cccc4[nH]ccc34)c2)cn1 [5-[3-Hydroxy-5-(1H-indol-4-yl)-phenylamino]-pyrazine-2-carbonitrile] | < 50 | ≥ 50 | 1000 to 30000 | > 3000 |
| O=C(c1cccnc1)c1ccc(O)c(C23CC4CC(CC(C4)C2)C3)c1 [(3-Adamantan-1-yl-4-hydroxy-phenyl)-pyridin-3-yl-methanone] | < 50 | < 50 | > 3000 | 1000 to 30000 |
| COc1ccc(Cc2c(O)cc(Nc3cccnc3)cc2-c2cccc3sccc23)cc1 [3-benzo[b]thiophen-4-yl-2-(4-methoxy-benzyl)-5-(pyridin-3-ylamino)-phenol] | ≥ 50 | < 50 | 1000 to 30000 | 1000 to 30000 |
| Oc1cc(Nc2ccc(O)nc2)cc(-c2cccc3[nH]ccc23)c1 [5-[3-Hydroxy-5-(1H-indol-4-yl)-phenylamino]-pyridin-2-ol] | < 50 |  | 1 to 999 | 1000 to 30000 |
| Oc1cc(Nc2cccnc2)cc(-c2ccc3cc[nH]c3c2)c1 [3-(1H-Indol-6-yl)-5-(pyridin-3-ylamino)-phenol] | < 50 | < 50 | 1000 to 30000 | 1000 to 30000 |
| Oc1ccc(C(O)c2cccnc2)cc1C12CC3CC(CC(C3)C1)C2 (centres unmarked) [2-Adamantan-1-yl-4-(hydroxy-pyridin-3-yl-methyl)-phenol] | < 50 |  | > 3000 | 1000 to 30000 |
| Oc1cc(Nc2ccncc2)cc(-c2cccc3[nH]ccc23)c1 [3-(1H-Indol-4-yl)-5-(pyridin-4-ylamino)-phenol] | ≥ 50 | ≥ 50 | 1 to 999 | 1 to 999 |
| O=C(c1ccc(CO)nc1)c1cc(O)cc(-c2cccc3[nH]ccc23)c1 [[3-Hydroxy-5-(1H-indol-4-yl)-phenyl]-(6-hydroxymethyl-pyridin-3-yl)-methanone] | < 50 | < 50 | > 3000 | 1000 to 30000 |
| CC(O)(c1cccnc1)c1cc(O)cc(-c2cccc3[nH]ccc23)c1 (centres unmarked) [3-(1-Hydroxy-1-pyridin-3-yl-ethyl)-5-(1H-indol-4-yl)-phenol] | < 50 |  | 1 to 999 | 1000 to 30000 |
| Cc1cncc(C(=O)c2cc(O)cc(-c3cccc4[nH]ccc34)c2)c1 [[3-Hydroxy-5-(1H-indol-4-yl)-phenyl]-(5-methyl-pyridin-3-yl)-methanone] | ≥ 50 | ≥ 50 | 1 to 999 | 1 to 999 |

| SMILES | activation at 0.1 µM [1] [%] | activation at 1 µM [2] [%] | IC50 (Hela cells) [nM] | IC50 (Jurkat cells) [nM] |
| --- | --- | --- | --- | --- |
| N#Cc1ccc2c(ccn2-c2cc(O)cc(Nc3cccnc3)c2)c1 [1-[3-Hydroxy-5-(pyridin-3-ylamino)-phenyl]-1H-indole-5-carbonitrile] | ≥ 50 | < 50 | 1000 to 30000 |  |
| O=C(c1cc(O)cc(-c2cccc3[nH]ccc23)c1)c1cnccn1 [[3-Hydroxy-5-(1H-indol-4-yl)-phenyl]-pyrazin-2-yl-methanone] | < 50 | < 50 | 1 to 999 | 1 to 999 |
| Oc1cc(Nc2cccnc2)cc(-c2ccccc2Cl)c1 [2′-Chloro-5-(pyridin-3-ylamino)-biphenyl-3-ol] | < 50 | < 50 | 1000 to 30000 | > 3000 |
| COc1ccc(COc2cc(Nc3cccnc3)cc(-c3cccc4sccc34)c2)cc1 [[3-Benzo[b]thiophen-4-yl-5-(4-methoxy-benzyloxy)-phenyl]-pyridin-3-yl-amine] |  |  | 1000 to 30000 | 1000 to 30000 |
| Oc1cc(Nc2cccnc2)cc(-c2cccc3[nH]ccc23)c1Cc1ccccc1 [2-Benzyl-3-(1H-Indol-4-yl)-5-(pyridin-3-ylamino)-phenol] | < 50 | < 50 | 1000 to 30000 | 1000 to 30000 |
| O=C(c1ccc(O)nc1)c1cc(O)cc(-c2cccc3[nH]ccc23)c1 [[3-Hydroxy-5-(1H-indol-4-yl)-phenyl]-(6-hydroxypyridin-3-yl)-methanone] | < 50 |  | 1 to 999 | 1000 to 30000 |
| COc1cc(-c2cccc3[nH]ccc23)nc(Nc2cccnc2)n1 [[4-(1H-Indol-4-yl)-6-methoxy-pyrimidin-2-yl]-pyridin-3-ylamine] | < 50 | < 50 | 1000 to 30000 |  |
| CS(=O)(=O)Nc1cccc(-c2cc(O)cc(Nc3cccnc3)c2)c1 [N-[5′-Hydroxy-3′-(pyridin-3-ylamino)-biphenyl-3-yl]-methanesulfonamide] | < 50 | ≥ 50 | 1000 to 30000 | 1000 to 30000 |
| CN(C)c1cccc(-c2cc(O)cc(Nc3cccnc3)c2)c1 [3′-Dimethylamino-5-(pyridin-3-ylamino)-biphenyl-3-ol] | < 50 | < 50 | 1000 to 30000 | 1000 to 30000 |
| Oc1cc(Nc2cccnc2)cc(-c2cccc3cn[nH]c23)c1 [3-(1H-Indazol-7-yl)-5-(pyridin-3-ylamino)-phenol] | < 50 | < 50 | 1000 to 30000 | 1 to 999 |
| Cn1ccc2cccc(-c3cc(O)cc(Nc4cccnc4)c3)c21 [3-(1-Methyl-1H-indol-7-yl)-5-(pyridin-3-ylamino)-phenol] | < 50 |  | > 3000 | 1000 to 30000 |
| Oc1cc(Nc2cccnc2)cc(-c2cccc3cc[nH]c23)c1 [3-(1H-Indol-7-yl)-5-(pyridin-3-ylamino)-phenol] | < 50 | < 50 | > 3000 | 1000 to 30000 |
| Nc1ccc(C(=O)c2cc(O)cc(-c3cccc4[nH]ccc34)c2)cn1 [(6-Amino-pyridin-3-yl)-[3-hydroxy-5-(1H-indol-4-yl)-phenyl]-methanone] | < 50 | ≥ 50 | 1000 to 30000 | 1 to 999 |
| Oc1cc(Nc2cccnc2)cc(-c2ccc3c(c2)OCO3)c1 [3-Benzo[1,3]dioxol-5-yl-5-(pyridin-3-ylamino)-phenol] | < 50 |  | > 3000 | 1000 to 30000 |
| O=[N+]([O-])c1cc(Nc2cccnc2)cc(-c2cccc3[nH]ccc23)c1 [[3-(1H-Indol-4-yl)-5-nitro-phenyl]-pyridin-3-yl-amine] | < 50 | < 50 | 1000 to 30000 | 1 to 999 |
